Reference: patent publication US9695193B2, “Inhibitors of Plasmodium falciparum equilibrative nucleoside transporter type I as anti-parasitic compounds” (The Trustees of Columbia University in the City of New York, priority 2013, dated 2017)

Biological target: T1, PfENT1 (Plasmodium falciparum, UniProt Q8IDM6)
T1 construct: expressed in transfected cells; host or cells: fui1Δ yeast (Saccharomyces cerevisiae), co-expressing GFP
Assay type: cell-based
Settings: primary HTS, compounds at 10 μM, 125 μM 5-FUrd
How it was run: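 fui1Δ yeast expressing PfENT1 and GFP were grown with 125 μM 5-fluorouridine, so growth reflects blocked 5-FUrd uptake. Compounds were screened at 10 μM. Growth scored by OD620 turbidity and GFP fluorescence, and hits had to be positive on both.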

T1 sequence (Q8IDM6 whole entry): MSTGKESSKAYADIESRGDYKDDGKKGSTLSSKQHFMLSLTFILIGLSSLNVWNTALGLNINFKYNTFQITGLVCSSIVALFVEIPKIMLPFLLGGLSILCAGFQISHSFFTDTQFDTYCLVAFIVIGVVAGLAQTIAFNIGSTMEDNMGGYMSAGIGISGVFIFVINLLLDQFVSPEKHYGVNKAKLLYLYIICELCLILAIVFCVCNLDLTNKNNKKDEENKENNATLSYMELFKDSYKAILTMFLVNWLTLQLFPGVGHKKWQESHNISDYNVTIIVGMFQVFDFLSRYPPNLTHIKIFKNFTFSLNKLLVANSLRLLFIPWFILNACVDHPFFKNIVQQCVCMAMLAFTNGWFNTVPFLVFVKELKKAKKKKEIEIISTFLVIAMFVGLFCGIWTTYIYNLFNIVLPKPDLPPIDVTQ

SMILES	Avg Normalized % maximal activity [%]
CC(=O)[C@H]1CC[C@H]2[C@@H]3C[C@H](C)C4=CC(=O)CC[C@]4(C)[C@H]3[C@@H](O)C[C@]12C [compound 121]	4.13
COc1c(C)cccc1C(=O)Nc1cc(-c2nc3ncccc3o2)ccc1C [compound 122, 2-methoxy-3-methyl-N-(2-methyl-5-[1,3]oxazolo[4,5-b]pyridin-2-ylphenyl)benzamide]	4.13
CC(C)c1nnc(NC(=O)c2cccc(I)c2)s1 [compound 123, 3-iodo-N-(5-isopropyl-1,3,4-thiadiazol-2-yl)benzamide]	4.10
COc1ccc(OC)c(NC(=O)N2CCN(c3cc(Cl)ccc3C)CC2)c1 [compound 124, 4-(5-chloro-2-methylphenyl)-N-(2,5-dimethoxyphenyl)-1-piperazine-carboxamide]	3.95
CCSc1nnc(NC(=O)c2cc(Br)ccc2Cl)s1 [compound 125, 5-bromo-2-chloro-N-[5-(ethylthio)-1,3,4-thiadiazol-2-yl]benzamide]	3.89
COc1ccc(NC(=O)C2(c3ccccc3)CCCC2)cc1 [compound 126, N-(4-methoxyphenyl)-1-phenylcyclopentane-carboxamide]	3.87
COc1c(C)c2c(c(O)c1C/C=C(\C)CCC(=O)OCCN1CCOCC1)C(=O)OC2 [compound 127]	3.85
COc1ccc(/C=C/c2nc(C#N)c(N3CCCCC3)o2)cc1OC [compound 128, 2-[2-(3,4-dimethoxyphenyl)vinyl]-5-(1-piperidinyl)-1,3-oxazole-4-carbonitrile]	3.74
CC(C)[C@@H]1CC[C@@H](C)CC1=O [compound 129]	3.73
O=C(C1CCCCC1)N1CCN(c2ccccn2)CC1 [compound 130, 1-(cyclohexylcarbonyl)-4-(2-pyridinyl)piperazine]	3.69
CC[S+](CC)c1c([O-])[nH]c(=O)n(Cc2ccc(F)cc2)c1=O [compound 131, 5-(diethylsulfonio)-1-(4-fluorobenzyl)-2,6-dioxo-1,2,3,6-tetrahydro-4-pyrimidinolate]	3.65
O=C(Nc1ccc(-c2nnc(-c3ccccc3)o2)cc1)c1ccccc1Cl [compound 132]	3.60
COc1ccc(C2CC(c3ccccc3C)n3nc(N)nc3N2)cc1 (stereo not drawn) [compound 133, 5-(4-methoxyphenyl)-7-(2-methylphenyl)-4,5,6,7-tetrahydro[1,2,4] triazolo[1,5-a]pyrimidin-2-amine]	3.57
Cc1cc(=O)oc2cc(OCc3ccc4c(c3)OCO4)ccc12 [compound 134, 7-(1,3-benzodioxol-5-ylmethoxy)-4-methyl-2H-chromen-2-one]	3.56
C[N+]1(C)C2CC(OC(=O)[C@H](CO)c3ccccc3)CC1C1OC12 (stereo partly drawn) [compound 135]	3.47
Cc1ccc2n1CCN(C(=O)c1ccc(S(=O)(=O)N(C)C)cc1)C2C (stereo not drawn) [compound 136]	3.43
O=C(Nc1cccc(NC(=O)c2cccs2)c1)c1ccc(Br)o1 [compound 137, 5-bromo-N-{3-[(2-thienylcarbonyl)amino]phenyl}-2-furamide]	3.37
COc1cc(C(=O)Nc2ccc(C(=O)c3cccs3)cc2)cc(OC)c1OC [compound 138, 3,4,5-trimethoxy-N-[4-(2-thienylcarbonyl)phenyl]benzamide]	3.31
Cc1cc(C)nc(NC(=O)c2cc3c(s2)CCCC3)n1 [compound 139, N-(4,6-dimethyl-2-pyrimidinyl)-4,5,6,7-tetrahydro-1-benzothiophene-2-carboxamide]	3.27
CCOc1ccc2c(C)cc(=O)oc2c1C [compound 140, 7-ethoxy-4,8-dimethyl-2H-chromen-2-one]	3.21
Cc1cc(-c2ccccc2)nc(SCc2nc3ccccc3c(=O)[nH]2)n1 [compound 141, 2-{[(4-methyl-6-phenyl-2-pyrimidinyl)thio]methyl}-4(3H)-quinazolinone]	3.21
COc1ccc(-c2nnc(SCc3csc(C)n3)o2)cc1OC [compound 142, 2-(3,4-dimethoxyphenyl)-5-{[(2-methyl-1,3-thiazol-4-yl)methyl]thio}-1,3,4-oxadiazole]	3.09
CC(=O)c1ccc(NC(=O)CSc2nnc3c4ccccc4n(C)c3n2)cc1 [compound 143, N-(4-acetylphenyl)-2-[(5-methyl-5H-[1,2,4]triazino [5,6-b]indol-3-yl)thio]acetamide]	3.07
Cc1cc2nc(Nc3nc(=O)c(C)c(C)[nH]3)nc(C)c2cc1C [compound 144, 5,6-dimethyl-2-[(4,6,7-trimethyl-2-quinazolinyl)amino]-4(1H)-pyrimidinone]	3.04

SMILES	Avg Normalized % maximal activity [%]
O=C(Nc1cccc(-c2nc3ncccc3o2)c1)c1ccc2c(c1)OCCO2 [compound 145, N-(3-[1,3]oxazolo[4,5-b]pyridin-2-ylphenyl)-2,3-dihydro-1,4-benzodioxine-6-carboxamide]	3.02
Br.Cc1ccnc(Nc2nc(-c3cccnc3)cs2)c1 [compound 146, 4-methyl-N-[4-(3-pyridinyl)-1,3-thiazol-2-yl]-2-pyridinamine hydrobromide]	2.97
CC(=O)c1ccc(NC(=O)CSc2nc3cc(C)ccc3[nH]2)cc1 [compound 147, N-(4-acetylphenyl)-2-[(5-methyl-1H-benzimidazol-2-yl)thio]acetamide]	2.77
O=C(Nc1sc2c(c1CNC1CCCCC1)CCCC2)c1ccccc1 [compound 148, N-{3-[(cyclohexylamino)methyl]-4,5,6,7-tetrahydro-1-benzothien-2-yl} benzamide]	2.74
Cc1ccc(C(=O)c2cccc(NC(=O)c3cccs3)c2)cc1C [compound 149, N-[3-(3,4-dimethylbenzoyl)phenyl]-2-thiophene-carboxamide]	2.71
Cn1c(=O)oc2cc(S(=O)(=O)Nc3ccccc3Br)ccc21 [compound 150, N-(2-bromophenyl)-3-methyl-2-oxo-2,3-dihydro-1,3-benzoxazole-6-sulfonamide]	2.62
O=C(O)c1ccc(S(=O)(=O)N(Cl)Cl)cc1 [compound 151]	2.60
COc1ccc(Cl)cc1C(=O)Nc1cc(C)ccn1 [compound 152, 5-chloro-2-methoxy-N-(4-methyl-2-pyridinyl)benzamide]	2.56
CN(C(=O)c1cc2c(=O)n3ccccc3nc2n1C)C1CCCCC1 [compound 153, N-cyclohexyl-N,1-dimethyl-4-oxo-1,4-dihydropyrido [1,2-a]pyrrolo[2,3-d] pyrimidine-2-carboxamide]	2.37
COc1ccc(NC(=O)C2CCN(C(=O)c3ccc(F)cc3)CC2)c(OC)c1 [compound 154, N-(2,4-dimethoxyphenyl)-1-(4-fluorobenzoyl)-4-piperidinecarboxamide]	2.30
CN1CCN(S(=O)(=O)c2ccc(C(=O)Nc3ccccc3)cc2)CC1 [compound 155, 4-[(4-methyl-1-piperazinyl)sulfonyl]-N-phenylbenzamide]	2.20
CCCCC(=O)Nc1ccc(NC(=O)c2cccs2)cc1OC [compound 156, N-[3-methoxy-4-(pentanoylamino)phenyl]-2-thiophenecarboxamide]	2.17
Cc1ccc(NC(=O)CSc2nc3cccnc3[nH]2)c(C)c1 [compound 157, N-(2,4-dimethylphenyl)-2-(3H-imidazo[4,5-b]pyridin-2-ylthio)acetamide]	2.12
COc1ccccc1C(=O)Nc1nnc(COc2ccc(C)cc2)s1 [compound 158, 2-methoxy-N-{5-[(4-methylphenoxy)methyl]-1,3,4-thiadiazol-2-yl}benzamide]	2.12
COc1cccc(C(CC(=O)O)S(C)(=O)=O)c1 (stereo not drawn) [compound 159]	2.12
CC(=O)Nc1ccc2nc(SCC(=O)NC3CCCCC3)sc2c1 [compound 160]	2.09
CCOC(=O)CSc1nnc2c3ccccc3n(CC)c2n1 [compound 161]	2.08
COCc1cc(C)nc2sc(C(=O)Nc3ccc(NC(C)=O)cc3)c(N)c12 [compound 162, N-[4-(acetylamino)phenyl]-3-amino-4-(methoxymethyl)-6-methylthieno [2,3-b]pyridine-2-carboxamide]	2.04
COc1ccc(OC)c(NC(=O)COc2ccc3ccccc3c2)c1 [compound 163, N-(2,5-dimethoxyphenyl)-2-(2-naphthyloxy)acetamide]	2.04
O=[N+]([O-])c1ccc(C2Nc3c(F)cccc3C3C=CCC32)cc1 (stereo not drawn) [compound 164, 6-fluoro-4-(4-nitrophenyl)-3a,4,5,9b-tetrahydro-3H-cyclopenta[c]quinoline]	2.01
CCC(C(=O)NCc1cccs1)c1ccccc1 (stereo not drawn) [compound 165, 2-phenyl-N-(2-thienylmethyl)butanamide]	2.01
O=c1c2c3nc4ccccc4nc3n(Cc3ccco3)c2ncn1Cc1ccco1 [compound 166]	1.98
O=C(Nc1c(-c2ccccc2)nc2ccc(Cl)cn12)c1ccccc1 [compound 167, N-(6-chloro-2-phenylimidazo [1,2-a]pyridin-3-yl)benzamide]	1.96
CC(=O)Nc1ccc(NC(=O)CSc2nc3ccccc3s2)cc1 [compound 168, N-[4-(acetylamino)phenyl]-2-(1,3-benzothiazol-2-ylthio)acetamide]	1.93
